For one data set, the system named is T. gondii RHΔhxgprt. In kind it is cell-based, Toxoplasma gondii. As to conditions: for apicoplast replication: 1st infection cycle, T. gondii RHΔhxgprt.
The next data set has as its system T. gondii YFP. The experiment in a line: T. gondii replication assay in two successive infection cycles. The format is cell-based, Toxoplasma gondii. As to conditions: exposure to less than 1 μM in the first cycle.
A further data set deals with cultured mammalian cells. As to conditions: cited from earlier work.

On to `CCc1nc(N)nc(N)c1-c1ccc(Cl)cc1` [Pyrimethamine], for which the “ratio of plastid to nuclear DNA” value in the data set with T. gondii RHΔhxgprt (either infection cycle) is listed as “did not affect”.
`CC[C@H]1OC(=O)[C@H](C)[C@@H](O[C@H]2C[C@@](C)(OC)[C@@H](O)[C@H](C)O2)[C@H](C)[C@@H](O[C@@H]2O[C@H](C)C[C@H](N(C)C)[C@H]2O)[C@](C)(O)C[C@@H](C)CN(Cc2ccccc2)[C@H](C)[C@@H](O)[C@]1(C)O` [Compound 11, N-benzyl-azithromycin]: the apicoplast replication entry in the data set with T. gondii RHΔhxgprt is on record as “significantly impaired”.
Consider Spiramycin, for which the apicoplast replication entry in the data set on T. gondii RHΔhxgprt is reported as “significantly impaired”.
Turning to `CC[C@H]1OC(=O)[C@H](C)[C@@H](O[C@H]2C[C@@](C)(OC)[C@@H](O)[C@H](C)O2)[C@H](C)[C@@H](O[C@@H]2O[C@H](C)C[C@H](N(C)C)[C@H]2O)[C@](C)(O)C[C@@H](C)CN(CCCc2ccccc2)[C@H](C)[C@@H](O)[C@]1(C)O` [Compound 30, N-phenylpropyl-azithromycin], in the data set on T. gondii RHΔhxgprt, the apicoplast replication entry is given as “significantly impaired”.
As for `CC[C@H]1OC(=O)[C@H](C)[C@@H](O[C@H]2C[C@@](C)(OC)[C@@H](O)[C@H](C)O2)[C@H](C)[C@@H](O[C@@H]2O[C@H](C)C[C@H](N(C)C)[C@H]2O)[C@](C)(O)C[C@@H](C)CN(C)[C@H](C)[C@@H](O)[C@]1(C)O` [Compound 3, Azithromycin], the “reduction in parasite titers by the end of the second infection cycle” value in the data set with T. gondii YFP is reported as greater than 2 fold. For the same compound, in the data set with T. gondii RHΔhxgprt, the apicoplast replication entry is recorded as “significantly impaired”. For the same compound, in the data set on cultured mammalian cells, the “concentration showing toxicity against cultured mammalian cells” value is roughly 100 µM.

The record behind these values is PMC3085955 (Journal of medicinal chemistry, 2011).
